Source: patent publication US6803195B1, “Facile detection of cancer and cancer risk based on level of coordination between alleles” (Ramot At Tel-Aviv University Ltd., priority 1999, dated 2004)

What was measured:
Format in all cases: cell-based, human
[1] = system: lymphocytes of control subjects (BPH); assay: FISH replication assay, lymphocytes of benign prostate hyperplasia (BPH) subjects grown with 5-azacytidine (Example 7); settings: BPH samples; all tested loci; 10^-7M AZA
Description: (§1) Each sample was set up for short-term culturing in F10 medium supplemented with 20% fetal calf serum (FCS), 3% phytohemagglutinin (PHA), 0.2% heparin, and 1% antibiotics (a standard solution of penicillin and streptomycin). Cultures were incubated at 37° C. for 72 hours and then colchicine (final concentration 0.1 μg/ml) was added to the culture for one hour, followed by hypotonic treatment (0.075 M KC1 at 37° C. for 15 minutes) and four washes each with a fresh cold 3:1 methanol: acetic acid solution. The cell suspensions were stored at −20° C. until used for fluorescence in situ hybridization (FISH). […]
(§2) Slides were analyzed blindly on an Olympus BH2 fluorescent microscope, using a triple band-pass filter (Chroma technology). […] For each sample and for each treatment the frequency of SD, SS and DD cells out of the total population of cells containing two fluorescent signals was recorded (for details please see Dotan et al, Genes, Chromosomes & Cancer 27:270-277, 2000). For the determination of allelic losses at least 200 cells from the same preparation used for replication studied were analyzed for each tested sample.

[2] = system: lymphocytes of prostate cancer patients (CAP) and control subjects (BPH); assay: FISH determination of allelic loss in CAP and BPH lymphocytes with and without 5-azacytidine (Example 7); settings: CAP samples 1-6 and BPH samples 1-6, presence vs absence of AZA
Description: as §1
as §2, with “sample. […]” for “sample.”

[3] = system: CON samples (healthy individuals); assay: FISH replication assay, cultures of healthy individuals (CON) with chromatin modifiers (Example 10); settings: for frequency (%) of SD cells, Mean: CON + AZA (10^-7M), N = 20
From the text: Cultures were set up from 44 healthy individuals (hereafter called CON) and 20 hematological malignancy patients at diagnosis (hereafter termed CAD). For 20 of the CON samples and all of the CAD samples peripheral in addition to the setting up cultures in the regular growth medium, cultures were set up in medium containing 5-azacytidine (10^−7M; Sigma, USA; hereafter referred to as AZA) a demethylating agent. In addition, cultures from 6 CON and 10 CAD samples were set up in medium containing a deacetylating agents, either Trichostatin A (33 nM; Sigma, USA; hereafter referred to as TSA) or Sodium Butirate (1 nM; Sigma, USA; hereafter referred to as NB), two well described acetylating agents.
These samples were hybridized with two commercial probes: the AML1 probe (LSI 21, […]) and the α-satellite probe specific for centromere 17 (32-130017, hereafter marked as CEN17). The results are summarized in Table 1 giving the number of samples hybridized with each probe (N), Mean and standard deviation (stdev) as well as the p value obtained using two tailed student's t-test (Microsoft Office 98).

With Nc1ncn([C@@H]2O[C@H](CO)[C@@H](O)[C@H]2O)c(=O)n1 [AZA, 5-azacytidine] the “effect of AZA on the SD values” [1] was “no significant effect”, the “frequency of cells showing a loss of one copy of AML1, TP53, CMYC, RB1, D15Z1 and SNRPN” value [2] was “Neither the CAP samples nor the BPH samples were affected” and the “frequency (%) of SD cells, Mean” value ([3]; AML1 locus) was “Mean = 21.5%”. For the same molecule, the “frequency (%) of SD cells, Mean” value ([3]; CEN17 locus) was “Mean = 20.9%” and the “replication pattern observed in normal genomes” value ([3]; cultured cells with chromatin modifier) was “not affecting”.
